Laboratory results from patent US20220338504A1 (priority 2017, published 2022).
Where two headings read alike, the source gives them in different places. Marks after values point to notes of the source that are not given here.

Experiments:
C. perfringens [1] = assay type: in vivo, broilers (male Ross×Ross chicks); settings: Virginiamycin 20 g/ton, formulated yeast 0.5 lb/ton, ground pepper 0.3 lb/ton, combination 0.3 + 0.5 lb/ton
C. perfringens [2] = assay type: in vivo, broilers (male Ross×Ross chicks); settings: 20 g/ton
[3] = tested on: E. maxima and C. perfringens; assay type: in vivo, broilers (male Cobb×Cobb chicks)
[4] = tested on: Clostridium perfringens strain #6 (with coccidia / E. maxima); assay type: in vivo, broilers (male Ross×Ross chicks)
[5] = tested on: E. maxima and C. perfringens; assay type: in vivo, broilers (male Cobb×Cobb chicks); settings: challenged, BMD 50.0 g/ton, encapsulated ground pepper 300 g/ton
[6] = tested on: E. maxima and C. perfringens; assay type: in vivo, broilers (male Cobb×Cobb chicks); remark: listed apart in the source
[7] = tested on: E. maxima and C. perfringens; assay type: in vivo, broilers (male Cobb×Cobb chicks); remark: listed apart in the source
[8] = tested on: E. maxima and C. perfringens; assay type: in vivo, broilers (male Cobb×Cobb chicks); remark: listed apart in the source
[9] = 0-21 d, challenged, BMD 50.0 g/ton, combination 0.30 lb/ton + 0.5 lb/ton + 3 × 10^5 cfu/g
[10] = 0-28 d, challenged, BMD 50.0 g/ton, combination 0.30 lb/ton + 0.5 lb/ton + 3 × 10^5 cfu/g
[11] = 14-21 d, challenged, BMD 50.0 g/ton, combination 0.30 lb/ton + 0.5 lb/ton + 3 × 10^5 cfu/g
[12] = 14-28 d, challenged, BMD 50.0 g/ton, combination 0.30 lb/ton + 0.5 lb/ton + 3 × 10^5 cfu/g
[13] = 0-21 d, challenged, BMD 50.0 g/ton, combination 0.3 lb/ton + 3 × 10^5 cfu/g
[14] = 0-28 d, challenged, BMD 50.0 g/ton, combination 0.3 lb/ton + 3 × 10^5 cfu/g
[15] = 14-21 d, challenged, BMD 50.0 g/ton, combination 0.3 lb/ton + 3 × 10^5 cfu/g
[16] = 14-28 d, challenged, BMD 50.0 g/ton, combination 0.3 lb/ton + 3 × 10^5 cfu/g
[17] = 0-21 d, challenged, BMD 50.0 g/ton, combination 4.0 lb/ton + 3 × 10^5 cfu/g
[18] = 0-28 d, challenged, BMD 50.0 g/ton, combination 4.0 lb/ton + 3 × 10^5 cfu/g
[19] = 14-21 d, challenged, BMD 50.0 g/ton, combination 4.0 lb/ton + 3 × 10^5 cfu/g
[20] = 14-28 d, challenged, BMD 50.0 g/ton, combination 4.0 lb/ton + 3 × 10^5 cfu/g
[21] = 0-21 d, challenged, BMD 50.0 g/ton, combination 0.5 lb/ton + 3 × 10^5 cfu/g
[22] = 0-28 d, challenged, BMD 50.0 g/ton, combination 0.5 lb/ton + 3 × 10^5 cfu/g
[23] = 14-21 d, challenged, BMD 50.0 g/ton, combination 0.5 lb/ton + 3 × 10^5 cfu/g
[24] = 14-28 d, challenged, BMD 50.0 g/ton, combination 0.5 lb/ton + 3 × 10^5 cfu/g

Q: How did the Body weight gain (C. perfringens [1]; 15 d) turn out when Virginiamycin was run?
A: 0.38 kg

Q: And the “Feed Conversion” value (C. perfringens [1]; 15 d)?
A: 1.32^xy

Q: What about the Feed consumption (C. perfringens [1]; 15 d) of the same substance?
A: 0.44^ab Kg

Q: What about the Body weight gain (C. perfringens [1]; 35 d) of the same substance?
A: 1.57^xy Kg

Q: What about the “Feed Conversion” value (C. perfringens [1]; 35 d) of the same substance?
A: 1.73

Q: What about the Feed consumption (C. perfringens [1]; 35 d) of the same substance?
A: 2.62 kg

Q: And the Body weight gain (C. perfringens [1]; 42 d)?
A: 2.17 kg

Q: And the “Feed Conversion” value (C. perfringens [1]; 42 d)?
A: 1.76

Q: And the Feed consumption (C. perfringens [1]; 42 d)?
A: 3.70 kg

Q: And the “Necrotic enteritis related mortality, %” value (C. perfringens [1])?
A: 3.50%

Q: And the “Total Mortality %” value (C. perfringens [1])?
A: 0.50%

Q: What about the “Total Mortality %” value (C. perfringens [2]) of the same substance?
A: 5.36%

Q: What about the Body weight gain (C. perfringens [2]; 15 d) of the same substance?
A: 0.33 kg

Q: And the “Feed Conversion” value (C. perfringens [2]; 15 d)?
A: 1.33^b

Q: And the Feed consumption (C. perfringens [2]; 15 d)?
A: 0.39 kg

Q: What about the Body weight gain (C. perfringens [2]; 35 d) of the same substance?
A: 1.10^ab Kg

Q: And the “Feed Conversion” value (C. perfringens [2]; 35 d)?
A: 1.62^abc

Q: And the Feed consumption (C. perfringens [2]; 35 d)?
A: 1.73^x Kg

Q: And the Body weight gain (C. perfringens [2]; 42 d)?
A: 2.27 kg

Q: And the “Feed Conversion” value (C. perfringens [2]; 42 d)?
A: 1.74^abc

Q: And the Feed consumption (C. perfringens [2]; 42 d)?
A: 3.90^xy Kg

Q: Which results are given for bacitracin methylene disalycilate [BMD]?
A: Body weight gain [3, 9]: 0.52^ab Kg; Feed Conversion [3, 9]: 1.81^a; Feed consumption [3, 9]: 0.94 kg; Body weight gain [3, 10]: 0.77 kg; Feed Conversion [3, 10]: 1.78^b; Feed consumption [3, 10]: 1.37 kg; Body weight gain [3, 11]: 0.28^b Kg; Feed Conversion [3, 11]: 1.77^b; Feed consumption [3, 11]: 0.49 kg; Body weight gain [3, 12]: 0.53 kg; Feed Conversion [3, 12]: 1.73^bc; Feed consumption [3, 12]: 0.91 kg; Necrotic enteritis lesion score ([3]; DOT 21, 0 to 3 score, challenged, BMD 50.0 g/ton, combination 0.30 lb/ton + 0.5 lb/ton + 3 × 10^5 cfu/g): 0.5^b; Necrotic enteritis lesion scores compared to the challenged control birds ([3]; P<0.05): lower; Overall FCR compared to the challenged no feed additive control ([3]; P<0.05): reduced; necrotic enteritis related mortality compared to the challenged control birds ([3]; P<0.05): lower; Necrotic enteritis related mortality, % ([3]; challenged, BMD 50.0 g/ton, combination 0.30 lb/ton + 0.5 lb/ton + 3 × 10^5 cfu/g): 2^b %; FCR compared to the challenge control birds ([3]; d 14-28, P<0.05): decreased; Body weight gain compared to the challenged no feed additive control group ([3]; in vivo): not impacted; controlling C. perfringens disease challenge ([3]; in vivo): effective; FCR compared to birds fed with no feed additive ([4]; 28 days of age, P<0.05): decreased; body weight gain compared to birds fed with no feed additive ([4]; 28 days of age, P<0.05): increased; Body weight gain compared to the control fed birds ([4]; 41 days of age, P<0.05): increased; FCR compared to the no feed additive control group ([4]; 41 days of age, P<0.05): decreased; Necrotic enteritis lesion score compared to the no feed additive control fed birds ([4]; in vivo): numerically reduced; controlling C. perfringens disease challenge ([4]; in vivo): effective; necrotic enteritis related mortality compared to the no feed additive control fed birds ([4]; in vivo): numerically reduced; Body weight gain ([5]; 0-21 d): 0.44 kg; Feed Conversion ([5]; 0-21 d): 1.79^ab; Feed consumption ([5]; 0-21 d): 0.79 kg; Body weight gain ([5]; 0-28 d): 0.65 kg; Feed Conversion ([5]; 0-28 d): 1.88^b; Feed consumption ([5]; 0-28 d): 1.22 kg; Body weight gain ([5]; 14-21 d): 0.16^b Kg; Feed Conversion ([5]; 14-21 d): 2.56^b; Feed consumption ([5]; 14-21 d): 0.41 kg; Body weight gain ([5]; 14-28 d): 0.37^ab Kg; Feed Conversion ([5]; 14-28 d): 2.58^b; Feed consumption ([5]; 14-28 d): 0.95 kg; Necrotic enteritis lesion score ([5]; DOT 21, 0 to 3 score, 0 normal, 3 most severe): 1.1^b; Necrotic enteritis related mortality, % [5]: 28.1^b %; Body weight gain [6, 13]: 0.66^a Kg; Feed Conversion [6, 13]: 1.62^ab; Feed consumption [6, 13]: 1.07 kg; Body weight gain [6, 14]: 0.92^ab Kg; Feed Conversion [6, 14]: 1.67^a; Feed consumption [6, 14]: 1.54 kg; Body weight gain [6, 15]: 0.30^b Kg; Feed Conversion [6, 15]: 1.95^b; Feed consumption [6, 15]: 0.58 kg; Body weight gain [6, 16]: 0.56^ab Kg; Feed Conversion [6, 16]: 1.93^b; Feed consumption [6, 16]: 1.08 kg; Necrotic enteritis lesion score ([6]; DOT 21, 0 to 3 score, challenged, BMD 50.0 g/ton, combination 0.3 lb/ton + 3 × 10^5 cfu/g): 0.50^b; Necrotic enteritis lesion score compared to the challenged control birds ([6]; P<0.05): lower; Necrotic enteritis related mortality, % ([6]; challenged, BMD 50.0 g/ton, combination 0.3 lb/ton + 3 × 10^5 cfu/g): 0.0%; overall body weight gain compared to the challenged control ([6]; d 0-28): increased; FCR compared to the challenge control birds ([6]; d 14-28, P<0.05): decreased; body weight gain compared to the challenge control birds ([6]; d 14-28, P<0.05): increased; controlling C. perfringens disease challenge ([6]; in vivo): effective; Body weight gain [7, 17]: 0.57^a Kg; Feed Conversion [7, 17]: 1.53^c; Feed consumption [7, 17]: 0.87 kg; Body weight gain [7, 18]: 0.81^a Kg; Feed Conversion [7, 18]: 1.60^b; Feed consumption [7, 18]: 1.30 kg; Body weight gain [7, 19]: 0.32^ab Kg; Feed Conversion [7, 19]: 1.72^b; Feed consumption [7, 19]: 0.55 kg; Body weight gain [7, 20]: 0.56^a Kg; Feed Conversion [7, 20]: 1.75^b; Feed consumption [7, 20]: 0.98^a Kg; Necrotic enteritis lesion score ([7]; DOT 21, 0 to 3 score, challenged, BMD 50.0 g/ton, combination 4.0 lb/ton + 3 × 10^5 cfu/g): 0.79^b; Necrotic enteritis lesion score compared to the challenged control birds ([7]; P<0.05): lower; Necrotic enteritis related mortality, % ([7]; challenged, BMD 50.0 g/ton, combination 4.0 lb/ton + 3 × 10^5 cfu/g): 0.0^b %; overall FCR compared to the challenged control birds ([7]; d 0-28): reduced; overall body weight gain compared to the challenged control birds ([7]; d 0-28): increased; FCR compared to the challenge control birds ([7]; d 14-28, P<0.05): decreased; body weight gain compared to the challenge control birds ([7]; d 14-28, P<0.05): increased; controlling C. perfringens disease challenge ([7]; in vivo): effective; necrotic enteritis mortality compared to the challenged control group ([7]; in vivo): lower; Body weight gain [8, 21]: 0.34^a Kg; Feed Conversion [8, 21]: 2.21^b; Feed consumption [8, 21]: 0.75 kg; Body weight gain [8, 22]: 0.57 kg; Feed Conversion [8, 22]: 2.08^b; Feed consumption [8, 22]: 1.19 kg; Body weight gain [8, 23]: 0.15^bc Kg; Feed Conversion [8, 23]: 2.30^b; Feed consumption [8, 23]: 0.34 kg; Body weight gain [8, 24]: 0.38^ab Kg; Feed Conversion [8, 24]: 2.05^b; Feed consumption [8, 24]: 0.78 kg; Necrotic enteritis lesion score ([8]; DOT 21, 0 to 3 score, challenged, BMD 50.0 g/ton, combination 0.5 lb/ton + 3 × 10^5 cfu/g): 0.3^c; Necrotic enteritis lesion score compared to the challenged control birds ([8]; P<0.05): lower; necrotic enteritis mortality compared to the challenged control group ([8]; P<0.05): decreased; Necrotic enteritis related mortality, % ([8]; challenged, BMD 50.0 g/ton, combination 0.5 lb/ton + 3 × 10^5 cfu/g): 3^b %; overall FCR compared to the challenged control birds ([8]; d 0-28, P<0.05): decreased; body weight gain compared to the challenge control birds ([8]; d 14-28): similar; FCR compared to the challenge control birds ([8]; d 14-28, P<0.05): decreased; controlling C. perfringens disease challenge ([8]; in vivo): effective
